Assay results published in patent publication US7365088B2, “Indazole-derivatives as factor Xa inhibitors” (Sanofi-Aventis Deutschland GmbH, priority 2003, dated 2008).

Target: human factor Xa (Homo sapiens, UniProt P00742)
Experiment: Factor Xa assay (chromogenic, substrate S-2765)

Chain of human factor Xa (P00742 235-488 limits assumed): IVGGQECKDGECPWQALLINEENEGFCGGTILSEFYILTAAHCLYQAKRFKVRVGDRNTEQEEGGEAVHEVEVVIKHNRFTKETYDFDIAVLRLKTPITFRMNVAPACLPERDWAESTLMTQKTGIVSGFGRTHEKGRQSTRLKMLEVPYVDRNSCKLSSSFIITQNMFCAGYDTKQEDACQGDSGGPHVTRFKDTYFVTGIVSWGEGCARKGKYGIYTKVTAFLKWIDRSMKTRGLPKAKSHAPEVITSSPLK
Chain of human factor Xa (P00742 41-179 partner limits assumed): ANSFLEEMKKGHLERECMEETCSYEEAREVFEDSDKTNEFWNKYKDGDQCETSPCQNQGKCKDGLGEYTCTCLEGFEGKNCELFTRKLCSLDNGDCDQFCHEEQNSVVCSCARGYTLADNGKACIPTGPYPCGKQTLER

| Ki | Structure (SMILES) |
| --- | --- |
| 15 nM | CC(C)N1CCC(NC(=O)c2nn(Cc3cc(-c4ccc(Cl)s4)on3)c3ccc(C(=O)N(C)CC(=O)O)cc23)CC1 [Example 28, {[1-[5-(5-Chloro-thiophen-2-yl)-isoxazol-3-ylmethyl]-3-(1-isopropyl-piperidin-4-ylcarbamoyl)-1H-indazole-5-carbonyl]-methyl-amino}-acetic acid] |
| 730 nM | CC1CC(=O)NN=C1c1ccc(NC(=O)c2nn(Cc3cc(-c4ccc(Cl)s4)on3)c3ccccc23)cc1 (centres unmarked) [Example 43, 1-[5-(5-Chloro-thiophen-2-yl)-isoxazol-3-ylmethyl]-1H-indazole-3-carboxylic acid [4-(4-methyl-6-oxo-1,4,5,6-tetrahydro-pyridazin-3-yl)-phenyl]-amide] |
| 46 nM | CC(C)N1CCC(NC(=O)c2nn(Cc3cc(-c4ccc(Cl)s4)on3)c3ccc(C(=O)NCCN4CCOCC4)cc23)CC1 [Example 15, 1-[5-(5-Chloro-thiophen-2-yl)-isoxazol-3-ylmethyl]-1H-indazole-3,5-dicarboxylic acid 3-[(1-isopropyl-piperidin-4-yl)-amide]5-[(2-morpholin-4-yl-ethyl)-amide]] |
| 19 nM | O=C(Nc1ccc(N2CCCC2=O)cc1)c1nn(Cc2cc(-c3ccc(Cl)s3)on2)c2ccccc12 [Example 39, 1-[5-(5-Chloro-thiophen-2-yl)-isoxazol-3-ylmethyl]-1H-indazole-3-carboxylic acid [4-(2-oxo-pyrrolidin-1-yl)-phenyl]-amide] |
| 13 nM | CC(C)N1CCC(NC(=O)c2nn(Cc3cc(-c4ccc(Cl)s4)on3)c3ccc(C(=O)N(C)CCO)cc23)CC1 [Example 18, 1-[5-(5-Chloro-thiophen-2-yl)-isoxazol-3-ylmethyl]-1H-indazole-3,5-dicarboxylic acid 5-[(2-hydroxy-ethyl)-methyl-amide]3-[(1-isopropyl-piperidin-4-yl)-amide]] |
| 47 nM | CC(C)N1CCC(NC(=O)c2nn(Cc3cc(-c4ccc(Cl)s4)on3)c3ccc(C(=O)NCC(F)F)cc23)CC1 [Example 20, 1-[5-(5-Chloro-thiophen-2-yl)-isoxazol-3-ylmethyl]-1H-indazole-3,5-dicarboxylic acid 5-[(2,2-difluoro-ethyl)-amide]3-[(1-isopropyl-piperidin-4-yl)-amide]] |
| 9 nM | COC(=O)c1ccc2c(c1)c(C(=O)Nc1ccc(N3CCOCC3=O)cc1)nn2Cc1cc(-c2ccc(Cl)s2)on1 [Example 47, 1-[5-(5-Chloro-thiophen-2-yl)-isoxazol-3-ylmethyl]-3-[4-(3-oxo-morpholin-4-yl)-phenylcarbamoyl]-1H-indazole-5-carboxylic acid methyl ester] |
| 41 nM | Cc1oc(=O)oc1COC(=O)c1ccc2c(c1)c(C(=O)NC1CCN(C(C)C)CC1)nn2Cc1cc(-c2ccc(Cl)s2)on1 [Example 50, 1-[5-(5-Chloro-thiophen-2-yl)-isoxazol-3-ylmethyl]-3-(1-isopropyl-piperidin-4-ylcarbamoyl)-1H-indazole-5-carboxylic acid 5-methyl-2-oxo-[1,3]dioxol-4-ylmethyl ester] |
| 5 nM | CC(C)N1CCC(NC(=O)c2nn(Cc3cc(-c4ccc(Cl)s4)on3)c3ccc(C(=O)N4CCC4)cc23)CC1 [Example 12, 5-(Azetidine-1-carbonyl)-1-[5-(5-chloro-thiophen-2-yl)-isoxazol-3-ylmethyl]-1H-indazole-3-carboxylic acid (1-isopropyl-piperidin-4-yl)-amide] |
| 7 nM | CC(C)N1CCC(NC(=O)c2nn(Cc3cc(-c4ccc(Cl)s4)on3)c3cccc(-c4noc(=O)[nH]4)c23)CC1 [Example 11, 1-[5-(5-Chloro-thiophen-2-yl)-isoxazol-3-ylmethyl]-4-(5-oxo-4,5-dihydro-[1,2,4]oxadiazol-3-yl)-1H-indazole-3-carboxylic acid (1-isopropyl-piperidin-4-yl)-amide] |
| 180 nM | O=C(Nc1ccc(-c2c[nH]cn2)cc1)c1nn(Cc2cc(-c3ccc(Cl)s3)on2)c2ccccc12 [Example 45, 1-[5-(5-Chloro-thiophen-2-yl)-isoxazol-3-ylmethyl]-1H-indazole-3-carboxylic acid [4-(1H-imidazol-4-yl)-phenyl]-amide] |
| 28 nM | CC(C)N1CCC(NC(=O)c2nn(Cc3cc(-c4ccc(Cl)s4)on3)c3ccc(C(=O)NCCO)cc23)CC1 [Example 22, 1-[5-(5-Chloro-thiophen-2-yl)-isoxazol-3-ylmethyl]-1H-indazole-3,5-dicarboxylic acid 5-[(2-hydroxy-ethyl)-amide]3-[(1-isopropyl-piperidin-4-yl)-amide]] |
| 12 nM | CC(C)N1CCC(NC(=O)c2nn(Cc3cc(-c4ccc(Cl)s4)on3)c3ccc(C(=O)N4CCCOCC4)cc23)CC1 [Example 30, 1-[5-(5-Chloro-thiophen-2-yl)-isoxazol-3-ylmethyl]-5-([1,4]oxazepane-4-carbonyl)-1H-indazole-3-carboxylic acid (1-isopropyl-piperidin-4-yl)-amide] |
| 43 nM | COCCOC(=O)c1ccc2c(c1)c(C(=O)NC1CCN(C(C)C)CC1)nn2Cc1cc(-c2ccc(Cl)s2)on1 [Example 56, 1-[5-(5-Chloro-thiophen-2-yl)-isoxazol-3-ylmethyl]-3-(1-isopropyl-piperidin-4-ylcarbamoyl)-1H-indazole-5-carboxylic acid 2-methoxy-ethyl ester] |
